Measurements taken from US20080305085A1, “Compositions And Methods For Stem Cell Expansion” (priority 2004, published 2008).

Tests used:
[1] = test system: Sca1+lin− bone marrow cells; assay: Culture of Sca1+lin− bone marrow cells with or without soluble OPN for 7 days, cells counted; format: cell-based, mouse; details: Sca1+lin− cells of C57B1/6 mice, 7 days in SCF, Flt-3, TPO, IL-3, OPN 1 μg/ml, versus without OPN
Experimental: (§1) FIGS. 5A-5C are graphs showing that soluble OPN induces apoptosis of primitive hematopoietic cells. Sca1^+lin^− cells were isolated from the bone marrow of C57B1/6 mice and cultured in IMDM containing 10% fetal calf serum (FCS), stem cell factor (SCF), Flt-3, thrombopoietin (TPO) and IL-3 with or without OPN [1 μg/ml]. After 7 days the cells were counted and analyzed in functional hematopoietic assays.
(§2) Exogenous OPN was used to assess its potential role in regulating primitive cells directly rather than through the altered expression of other regulators within the niche. Initial experiments cultured Sca1^+lin^− bone marrow cells of C57B1/6 mice in medium containing stem cell factor (SCF), Flt-3, thrombopoietin (TPO), and IL-3 with and without OPN for 7 days. The cells were subsequently counted and analyzed in functional in vitro progenitor and stem cell assays. Addition of soluble OPN led to a lower total cell number with an unperturbed absolute number of CFCs representing hematopoietic progenitor cell activity (n=5) (FIG. 5A).
(§3) Mouse bone marrow was obtained from 8-12 week old 129/C57BL/6 OPN^+/+ and 129/C57BL/6 OPN^−/− mice, sacrificed with CO2. Bone marrow cell and spleen cell suspensions were flushed from femurs and tibias or take from spleen, filtered through 100 μm-mesh nylon cloth (Sefar America Inc., Kansas City, Mo.), and stored on ice until use. […]

[2] = test system: Sca1+lin− bone marrow cells; assay: Colony-forming cell (CFC) assay after 7 day culture with OPN; format: cell-based, mouse; details: after 7 days culture with OPN 1 μg/ml versus without OPN, n=5
Experimental: as §1, §2, §3

[3] = test system: Sca1+lin− bone marrow cells; assay: Limiting dilution LTC-IC assay after 7 day culture with OPN; format: cell-based, mouse; details: after 7 days culture with OPN 1 μg/ml; without OPN 35.9±5.14; P=0.002, n=5
Experimental: as §1
Exogenous OPN was used to assess its potential role in regulating primitive cells directly rather than through the altered expression of other regulators within the niche. Initial experiments cultured Sca1^+lin^− bone marrow cells of C57B1/6 mice in medium containing stem cell factor (SCF), Flt-3, thrombopoietin (TPO), and IL-3 with and without OPN for 7 days. The cells were subsequently counted and analyzed in functional in vitro progenitor and stem cell assays. […]
To quantify the stem cells in the bone marrow and spleen cell suspension, the CAFC assay^36 was adapted with minor modifications as described in our previous publication^37. To measure long term culture-initiating cells (LTC-IC) the semisolid, cytokine containing methylcellulose medium for CFC was overlaid into the wells at week 5 and the colonies were counted at day ten. […]

[4] = test system: lin− primitive hematopoietic cells; assay: Apoptosis by AnnexinV / 7-AAD flow cytometry of cells cultured with OPN; format: cell-based, mouse; details: cultured with OPN 1 μg/ml versus without OPN
Experimental: as §1
The fraction of apoptotic cells was next analyzed by staining with lineage markers, 7-AAD and AnnexinV. […] OPN exerted a pro-apoptotic effect on primitive cells potentially constraining the size of the stem cell pool.
Flow cytometry was used to quantify the hematopoietic cells at different stages in the peripheral blood and the bone marrow of the transplanted animals. […] To quantify the enriched stem cell phenotype (Sca1^+lin^−) in primary animals and in transplanted animals bone marrow cells were stained with biotinylated lineage antibodies (CD3, Ter119 (Pharmingen, San Diego, Calif.), CD4, CD8, B220, IgM, Gr-1 and Mac1 (Caltag, Burlingame, Calif.)), c-kit-APC (Pharmingen, San Diego, Calif.) and Sca1-PE (Caltag, Burlingame, Calif.). The cells were analyzed after labeling with the secondary antibody Streptavidin-PerCP (Becton Dickinson, Franklin Lakes, N.J.). […]

Jagged1 = Jagged1 expression by RT-PCR in wild-type bone marrow stroma exposed to OPN ex vivo; format: cell-based, mouse; details: OPN 1 ug/ml, four hours ex vivo
Source text: FIGS. 4A-4F are graphs showing that OPN^−/− bone marrow has unaltered cell cycle profiles associated with increased stromal Jagged1 and Angiopoietin-1 expression and reduced primitive cell apoptosis. FIG. 4A is a graph showing that bone marrow Sca1^+ c-kit^+lin^− cells that show bright staining for Hoechst33342 are cells in the G2/M phase of the cell cycle (n=3 pairs). […] Data are the result of two independent experiments with four mice per group in each experiment. […] Data were normalized to an intrasample GAPDH standard and the results of the OPN^−/− versus OPN^+/+ cells were compared by ratio. […] Data are normalized against GAPDH expression measured by RT PCR. […] AnnexinV-positive/7-AAD-negative apoptotic Sca1^+c-kit^+lin^− cells are shown (n=4 pairs). […] Analyses were performed on the lin^− fraction twelve weeks after transplantation (n=4).
Stem cell expansion may occur without increased proliferation in the context of Notch1 activation where stem cell self renewal is favored over differentiation^23,24. Activation of Notch1 on primitive hematopoietic cells in vivo was previously shown to result in an increase in primitive cells, but reduced progenitor cells similar phenotype to that reported herein^23. […]
The expression of Jagged1, Angiopoietin1 and N-cadherin in bone marrow stroma cells was measured by RT-PCR. […]

Sca1+c-kit+lin− cells = assay: In vivo PTH treatment, Sca1+c-kit+lin− cells in bone marrow by flow cytometry; parameters: species or system mouse; details: for magnitude of Sca1+c-kit+lin− increase induced by PTH, absolute number / magnitude of Sca1+c-kit+lin− increase induced by PTH, proportion: four weeks of PTH
Experimental: FIG. 6 is a graph showing that OPN deficiency permits increased primitive hematopoietic cell compartment expansion after niche activation by parathyroid hormone (PTH): OPN^+/+ and OPN^−/− mice were treated with PTH by daily injection for 4 weeks. The bone marrow was analyzed by flow cytometry.
Parathyroid hormone is capable of activating niche osteoblasts and expanding the number of stem cells in vitro and in vivo in a Notch mediated manner. […] Stimulation with PTH increases OPN production leading to the hypothesis that the degree of stem cell expansion possible by PTH niche activation may be restricted by OPN. Using the OPN null or wild type mouse, the number of primitive cells was assessed following four weeks of PTH stimulation. A difference in the number of Sca1^+c-kit^+lin^− was noted between the OPN null and wild type mouse prior to PTH (FIG. 6). With PTH treatment, there was an increase in the Sca1^+c-kit^+lin^− cells in each genotypic background.
6-8 week old wild-type or null male mice were injected with rat PTH (1-34) (Bachem, Torrance, Calif.) (80 μg/Kg of body weight) or vehicle alone intraperitoneally 5×/week for 4 weeks (n=4-6/group). Animals were sacrificed and bone marrow cell isolated and analyzed as above.
Flow cytometry was used to quantify the hematopoietic cells at different stages in the peripheral blood and the bone marrow of the transplanted animals. Bone marrow nucleated cells were labeled with the leukocyte antibodies Ly5.1-PE and Ly5.2-biotin (Pharmingen, San Diego, Calif.), lineage antibodies (CD3-PerCP, CD4-PE, B220-PE, Ter119-PE, (Pharmingen, San Diego, Calif.), CD8-Tri, Gr-1-Tri, Mac1-PE (Caltag)), and stem cell markers (Sca1-Tri and PE, c-kit-Tri (Caltag, Burlingame, Calif.)). To quantify the enriched stem cell phenotype (Sca1^+lin^−) in primary animals and in transplanted animals bone marrow cells were stained with biotinylated lineage antibodies (CD3, Ter119 (Pharmingen, San Diego, Calif.), CD4, CD8, B220, IgM, Gr-1 and Mac1 (Caltag, Burlingame, Calif.)), c-kit-APC (Pharmingen, San Diego, Calif.) and Sca1-PE (Caltag, Burlingame, Calif.). The cells were analyzed after labeling with the secondary antibody Streptavidin-PerCP (Becton Dickinson, Franklin Lakes, N.J.). For cell cycle analyses bone marrow cells were incubated with stem cell markers and the DNA dye Hoechst33342. The proportion of apoptotic cells were measured by staining with AnnexinV (Caltag, Burlingame, Calif.) and the DNA-dye 7-AAD (Sigma, St. Louis, Mo.).

Row | Substance | total cell number [1] | absolute number of CFCs [2] | absolute number of LTC-ICs [3] [LTC-ICs/well] | percentage of AnnexinV+7-AAD− cells in the lin− cell population [4] | Jagged1 expression (RT-PCR, normalized to GAPDH) (Jagged1) | Sca1+c-kit+lin− cells after PTH treatment (Sca1+c-kit+lin− cells; OPN null and wild type mice, 80 μg/Kg i.p. 5×/week for 4 weeks) | magnitude of Sca1+c-kit+lin− increase induced by PTH, absolute number (Sca1+c-kit+lin− cells; OPN null mice) | magnitude of Sca1+c-kit+lin− increase induced by PTH, proportion (Sca1+c-kit+lin− cells; OPN null mice) [%] | magnitude of Sca1+c-kit+lin− increase induced by PTH, absolute number (Sca1+c-kit+lin− cells; wild type mice) | magnitude of Sca1+c-kit+lin− increase induced by PTH, proportion (Sca1+c-kit+lin− cells; wild type mice) [%]
1 | OPN: Osteopontin, a secreted, highly acidic glycoprotein; OPN protein was obtained from R&D Systems | lower | unperturbed | 16.41±4.5 | higher percentage | statistically significantly reduced |  |  |  |  | 
2 | PTH: rat PTH (1-34) (Bachem), parathyroid hormone used to activate niche osteoblasts (AVSEIQLMHNLGKHLASVERMQWLRKKLQDVHNF; Parathyroid hormone; UniProt P04089 32-65, looked up, fragment) |  |  |  |  |  | increase | 5.94×10^4 stem cells per femur pair | 10.0 | 3.82×10^4 stem cells per femur pair | 7.5
